Reference: US20250127844A1, “PEPTIDE HAVING HAIR LOSS PREVENTION OR HAIR GROWTH PROMOTION ACTIVITY AND USE THEREOF” (CAREGEN CO., LTD., priority 2021, published 2025)

Experiments:
[1] = system: LEF-1; experiment: RT-PCR of LEF-1 expression in HHFDPC; format: cell-based, human; settings: peptide 500 nM, 5 μM, 50 μM, 24 hours, vs untreated control, FIG. 4
Procedure: (§1) Furthermore, in order to determine whether the β-catenin moves to the nucleus and is activated to affect proliferation and differentiation, whether the expression of LEF-1, c-Myc and cyclin D1 (cyclin D1), which act as downstream factors, increases with β-catenin activation was confirmed through RT-PCR. Specifically, in the same manner as the previous Western blotting experiment, HHFDPC cells were cultured, treated with the peptides of the Preparation Example of the present invention at concentrations of 500 nM, 5 μM, and 50 μM, respectively, and cultured at 37° C. for 24 hours. After washing the cells with PBS, RNA was isolated by treating them with 300 μ ? of easy blue (intron, Korea). Then, cDNA was synthesized using a cDNA synthesis kit (enzynomics, Korea) by quantifying it with nano drop, and PCR was performed using primers for LEF-1, c-Myc and cyclin D1 (base sequences of the primer are listed in Table 2 below) and PCR premix (enzynomics, Korea). Electrophoresis was performed on a 1.5% agarose gel, and then the mRNA of LEF-1, c-Myc, c-Myc and cyclin D1 was detected using a band analysis system (Bio-Rad gel image system).

[2] = system: DKK-1 protein; experiment: Western blotting of DKK-1 protein in DHT-treated HHFDPC; format: cell-based, human; settings: HHFDPC with DHT 100 nM, peptide 500 nM, 5 μM, 50 μM, 24 hours, vs DHT-only negative control, FIG. 5
Procedure: DKK-1 protein (dickkopf-related protein 1) is a hair loss-related protein known to be highly expressed in individuals with hair loss, especially male pattern hair loss, and its expression is known to be promoted by hormones such as DHT (Dihydrotestosterone). Accordingly, the expression of DKK-1 protein was induced by treating HHFDPC cells with DHT together with the peptide according to the Preparation Example of the present invention, and then the expression level of DKK-1 was measured through Western blotting to determine whether there was an effect of suppressing the expression of DKK-1 protein.
Specifically, HHFDPC as in [Experiment Example 1-1] was seeded in a 6-well culture plate at 4×10^5 cells/well and then cultured in MSC complete medium (mesenchymal stem cell complete media) for 24 hours. Next, the medium was replaced with serum free MSC complete medium and cultured again for 24 hours. In addition, the HHFDPC was treated with the peptide of SEQ ID NO: 1 prepared in the Preparation Example at concentrations of 500 nM, 5 μM, and 50 μM, respectively, and at this time, DHT, an expression inducer of DKK-1 protein, was simultaneously treated at a concentration of 100 nM and then cultured at 37° C. for 24 hours. […] After washing again with 0.1% PBS-T (0.1% Tween-20 in PBS) three times for 15 minutes each, DKK-1 protein was detected by treatment with ECL solution (GE Healthcare, USA).

[3] = system: c-Myc; experiment: RT-PCR of c-Myc expression in HHFDPC; format: cell-based, human; settings: peptide 500 nM, 5 μM, 50 μM, 24 hours, vs untreated control, FIG. 4
Procedure: as §1

[4] = system: β-catenin; experiment: Western blotting of β-catenin moved to the nucleus in HHFDPC; format: cell-based, human; settings: HHFDPC nuclear protein, peptide 500 nM, 5 μM, 50 μM, 24 hours, vs untreated control, FIG. 3
Procedure: In addition, in addition to p-AKT and p-ERK, in order to confirm the activation of β-catenin, which is known to affect cell proliferation and differentiation, whether β-catenin moved into the nucleus was confirmed through Western blotting. Specifically, the HHFDPC as in [Experiment Example 1-1] was seeded in a 6-well culture plate at an amount of 4×10^5 cells/well, cultured in MSC complete medium (mesenchymal stem cell complete media) for 24 hours. Next, the medium was replaced with serum free MSC complete medium and cultured again for 24 hours. Then, the HHFDPC was treated with the peptide of SEQ ID NO: 1 prepared in the Preparation Example at concentrations of 500 nM, 5 μM, and 50 μM, respectively, and cultured at 37° C. for 24 hours. As a positive control, minoxidil was treated at a concentration of 1 μM, and as a negative control, HHFDPC without any treatment was used. After washing with PBS, proteins in the nucleus were isolated using a nuclear protein extraction kit (Thermo scientific, USA). After electrophoresis using a 10% SDS-PAGE gel, it was transferred to a PVDF membrane and blocked using 5% skim milk at room temperature for 30 minutes. […] After washing again with 0.1% PBS-T (0.1% Tween-20 in PBS) three times for 15 minutes each, β-catenin was detected by treatment with ECL solution (GE Healthcare, USA).

[5] = system: p-AKT; experiment: Western blotting of phosphorylated AKT in HHFDPC; format: cell-based, human; settings: peptide 500 nM, 5 μM, 50 μM, 24 hours, vs untreated control, FIG. 2
Procedure: (§2) First, phosphorylated forms of AKT and ERK, which act as signaling molecules related to the proliferation of HHFDPC, were confirmed through Western blotting. Specifically, HHFDPC as in [Experiment Example 1-1] above was seeded at 4×10^5 cells/well in a 6-well culture plate, cultured in MSC complete medium (mesenchymal stem cell complete media) for 24 hours, and then the medium was replaced with serum free MSC complete medium and cultured for another 24 hours. Then, the HHFDPC was treated with the peptide of SEQ ID NO: 1 prepared in the Preparation Example at concentrations of 500 nM, 5 μM, and 50 μM, respectively, and cultured at 37° C. for 24 hours. As a positive control, minoxidil was treated at a concentration of 1 μM, and as a negative control, HHFDPC without any treatment was used. Then, Western blotting was performed to detect phosphorylated AKT and phosphorylated ERK. After washing with PBS, the cells were treated with 100 μ ? of lysis buffer to destroy cells, thereby obtaining cell lysate. After electrophoresis using a 10% SDS-PAGE gel, it was transferred to a PVDF membrane and blocked using 5% skim milk at room temperature for 30 minutes. […] After washing again with 0.1% PBS-T (0.1% Tween-20 in PBS) three times for 15 minutes each, p-AKT and p-ERK were detected by treatment with ECL solution (GE Healthcare, USA).

[6] = system: cyclin D1; experiment: RT-PCR of cyclin D1 expression in HHFDPC; format: cell-based, human; settings: peptide 500 nM, 5 μM, 50 μM, 24 hours, vs untreated control, FIG. 4
Procedure: as §1

[7] = system: p-ERK; experiment: Western blotting of phosphorylated ERK in HHFDPC; format: cell-based, human; settings: peptide 500 nM, 5 μM, 50 μM, 24 hours, vs untreated control, FIG. 2
Procedure: as §2

[8] = system: Keratin 19; experiment: RT-PCR of Keratin 19 expression in HHORSC; format: cell-based, human; settings: peptide 500 nM, 5 μM, 50 μM, 72 hours, vs untreated control, FIG. 6
Procedure: (§3) Specifically, HHORSC (human hair outer root sheath cell, Sciencell, USA) was seeded in a 6-well culture plate at 4×10^5 cells/well and then cultured in MSC complete medium (mesenchymal stem cell complete media) for 24 hours. Next, the medium was replaced with serum free MSC complete medium and cultured again for 24 hours. Then, the HHORSC was treated with the peptide of SEQ ID NO: 1 prepared in the Preparation Example at concentrations of 500 nM, 5 μM, and 50 μM, respectively, and cultured at 37° C. for 72 hours. As a positive control, EGF was treated at a concentration of 50 nM, and as a negative control, HHORSC without any treatment was used. After washing with PBS, RNA was isolated by treating with 300 μ ? of easy blue (intron, Korea). Then, cDNA was synthesized using a cDNA synthesis kit (enzynomics, Korea) by quantification using nano drop, and PCR was performed using primers for Ha3-II, Keratin 14, and Keratin 19 (base sequences of primer are listed in Table 3 below) and PCR premix (enzynomics, Korea). Electrophoresis was performed on a 1.5% agarose gel, and the mRNAs of Ha3-II, Keratin 14, and Keratin 19 were detected using a band analysis system (Bio-Rad gel image system).

[9] = system: Ha3-II; experiment: RT-PCR of Ha3-II expression in HHORSC; format: cell-based, human; settings: peptide 500 nM, 5 μM, 50 μM, 72 hours, vs untreated control, FIG. 6
Procedure: as §3

[10] = system: human hair follicle dermal papilla cells (HHFDPC); experiment: MTT proliferation of dermal papilla cells; format: cell-based; settings: peptide 500 nM, 5 μM, 50 μM, 72 hours, vs untreated control, FIG. 1
Procedure: While culturing human hair follicle dermal papilla cells (HHFDPC), the absorbance was measured after treatment with the peptide of the present invention to confirm whether there was an effect of promoting the proliferation of the HHFDPC dermal papilla cells.
Specifically, HHFDPC (Sciencell, USA) was seeded at 4×10^3 cells/well in a 96-well culture plate, cultured in MSC complete medium (mesenchymal stem cell complete media, Sciencell, USA) for 24 hours, and then the medium was replaced with serum free MSC complete medium and cultured for another 24 hours. Then, the HHFDPC was treated with the peptide of SEQ ID NO: 1 prepared in the Preparation Example at concentrations of 500 nM, 5 μM, and 50 μM, respectively, and cultured at 37° C. for 72 hours. As a positive control, minoxidil was treated at a concentration of 1 μM, and as a negative control, HHFDPC without any treatment was used. Then, 10 μ ? of 5 mg/mL MTT solution was added and cultured in a 37° C. CO2 incubator for 4 hours to stain the cells. After removing the medium, the cells were treated with 100 μl of DMSO and shaken for 10 minutes, and the number of HHFDPC cells was confirmed by measuring absorbance at a wavelength of 540 nm using a spectrophotometer.

[11] = system: MSX2; experiment: RT-PCR of MSX2 expression in HHGMC; format: cell-based, human; settings: peptide 500 nM, 5 μM, 50 μM, 72 hours, vs untreated control, FIG. 7
Procedure: Specifically, HHGMC (human hair germinal matrix cell, Sciencell, USA) was seeded in a 6-well culture plate at 4×10^5 cells/well and then cultured in MSC complete medium (mesenchymal stem cell complete media) for 24 hours. Next, the medium was replaced with serum free MSC complete medium and cultured again for 24 hours. Then, the HHGMC was treated with the peptide of SEQ ID NO: 1 prepared in the Preparation Example at concentrations of 500 nM, 5 μM, and 50 μM, respectively, and cultured at 37° C. for 72 hours. As a positive control, EGF was treated at a concentration of 50 nM, and as a negative control, HHGMC without any treatment was used. After washing with PBS, RNA was isolated by treating with 300 μ ? of easy blue (intron, Korea). Next, cDNA was synthesized using a cDNA synthesis kit (enzynomics, Korea) by quantification using nano drop, and PCR was performed using primers for MSX2 (base sequences of primer are listed in Table 4 below) and PCR premix (enzynomics, Korea). Electrophoresis was performed on a 1.5% agarose gel, and MSX2 mRNA was detected using a band analysis system (Bio-Rad gel image system).

[12] = system: Keratin 14; experiment: RT-PCR of Keratin 14 expression in HHORSC; format: cell-based, human; settings: peptide 500 nM, 5 μM, 50 μM, 72 hours, vs untreated control, FIG. 6
Procedure: as §3

QHNQIRYFEE [peptide of the present invention]
LEF-1 mRNA [1]: the amount of mRNA increased further | amount of DKK-1 protein [2]: the amount of DKK-1 protein was found to be reduced | c-Myc mRNA [3]: the amount of mRNA increased further | β-catenin moved to the nucleus [4]: migration due to activation of β-catenin increased | phosphorylated AKT (p-AKT) [5]: phosphorylation was found to be increased | cyclin D1 mRNA [6]: the amount of mRNA increased further | phosphorylated ERK (p-ERK) [7]: phosphorylation was found to be increased | Keratin 19 mRNA [8]: the amount of mRNA increased further | Ha3-II mRNA [9]: the amount of mRNA increased further | proliferation of HHFDPC (absorbance at 540 nm, MTT) [10]: proliferation of HHFDPC was promoted depending on the concentration of the treated peptide | MSX2 mRNA [11]: the amount of mRNA increased further | Keratin 14 mRNA [12]: the amount of mRNA increased further
